We go through 3 compounds from US20150166667A1, “METHODS AND COMPOSITIONS FOR TREATING CANCER” (RAMOT AT TEL-AVIV UNIVERSITY LTD., priority 2012, published 2015).

In one assay the test system is keratin 1. Description: Keratin 1 assembly in differentiating skin cells (insoluble fraction, Western blot). Format: cell-based, mice. As to conditions: cells induced to differentiate in presence of insulin or IGF1; FIG. 19. The protocol:
Primary skin cells were isolated from the SIRKO and IR (lox/lox) control mice and grown in culture. On day 3, the calcium concentration in the growth medium was raised from 0.05 mM to 0.12 mM to induce differentiation, and the culture was further maintained. On day 6, cells were harvested. To evaluate the effects of IR inactivation on the state of keratin filaments, cell lysates were fractionated into a Triton X-100-soluble fraction, containing the elementary keratin units, and a Triton-insoluble fraction, containing the mature keratin filaments. Western blot analysis was carried out on these fractions to estimate the amount of K1 present in each fraction, using Actin content as a loading control. […] A representative experiment of 4 repeats is depicted in the figures.

The test system of assay [1] is primary keratinocytes and fibroblasts. Description: 3D skin organotypic coculture, epidermal differentiation. Format: cell-based, mice. As to conditions: for expression of K14 (marker of proliferating keratinocytes) / expression of the differentiation markers Keratin-1 and Loricrin: immunohistochemistry, 10^-6M insulin or 10^-7M IGF1, FIG. 3B. The protocol: Primary keratinocytes and fibroblasts were isolated from WT mice, and organotypic cocultures were plated. Immediately afterwards, 10^−6M insulin or 10^−7M IGF1 was added to the growth medium and maintained throughout the experiment. Coculture inserts were further processed; H&E staining of a tissue section is shown. The effects of insulin and IGF1 on differentiation of human keratinocytes were tested in a 3-dimensional organotypic skin co-culture. In this model system, primary murine or human keratinocytes were plated on top of a fibroblast-containing collagen gel dermal equivalent. Within a few days under proper growth conditions, the 3D-organotypic coculture became organized, mimicking the histological structure of the skin tissue in vivo, including the skin epidermal layers as well as keratin formation. By mimicking the natural tissue architecture, such conditions enable keratinocytes to recapitulate their tissue-specific differentiation program in vitro.

For another assay, the system named is p21 (WAF1/Cip1). Description: p21 (WAF1/Cip1) expression in Ha-Ras infected keratinocytes, Western blot. Format: cell-based, mouse. As to conditions: control cells, TPA 100 nM for 24 hr, FIG. 10A. The protocol:
Primary mouse keratinocytes derived from control and IR-KO mice were infected with Ha-Ras, and 24 hr later were treated with TPA [100 nM] or vehicle for 24 hr. Expression of p21 (WAF1/Cip1) was evaluated by Western blot analysis, using a polyclonal antibody. Localization of p21 in the cells was examined by staining for DAPI and p21 (WAF1/Cip1) and visualization using fluorescent microscopy.

The next assay has as its system SCC Cal 27 cells. As to the kind of experiment: Proliferation of SCC Cal 27 cells by thymidine incorporation. As to conditions: serum starved cells, 24 hours; FIG. 15C. Format: cell-based, human. As to the method:
SCC Cal 27 cells were grown in culture to 70% confluency. The cells were serum starved for 24 hours after which a blocking anti IR antibody (Thermo Scientific; Insulin Receptor (α-Subunit) Ab-3 (Clone 47-9); Cat. #MS-633-PABX) was added at the concentrations indicated, with or without insulin as indicated, and the cells were incubated further for 24 hours.
Left, center, and right bars are insulin, 10 nM, and 20 nM respectively. […] In each case, results were normalized to control groups. The P values for 10 nM and 20 nM are as follows: control vs 10 nM Ab: p=8.616 E-5; control vs 20 nM Ab: p=1.745 E-5; control vs 10 nM Ab+insulin: p=0.00072; control vs 20 nM Ab+insulin: p=0.00558.
(Incorporation of labelled thymidine or its analogues reports DNA synthesis.)

The next assay deals with human HaCaT skin cells. Description: In vitro scratch closure assay, HaCaT cells with IR inactivated by siRNA. Type of assay: cell-based. The conditions noted are these: FIG. 6B. The protocol: (§1) Insulin and IGF1 treatment: Primary murine keratinocytes were grown for 6 days in culture. On the day of the experiment insulin (10^−6M) or IGF-1 (10^−7M) were added, after which a scratch was made by a micropipette tip (day 0). In some of the plates, proliferation was inhibited by adding 25 microgram/ml mitomycin C, 4 hours prior to culture wounding. In another set of experiments (E-F) insulin receptor was inactivated by siRNA in human HaCaT skin cells. The effects of insulin and IGF1 were measured as described above. In all experiments digital photos were taken at day 0 and 24 hours later (day 1), from which 20 randomly chosen photos were taken from each treatment group and further analyzed to determine the average remaining scratch width.
(§2) The effect of insulin on skin cell migration was assessed using an in vitro scratch closure assay. Keratinocytes were grown to confluency, were left untreated or were treated with insulin or IGF-1, in the absence (6A; top panel) or presence (6A; bottom panel) of mitomycin C. The cell layer was scratched by a tip, and the degree of closure was subsequently measured. The amount of migration of control cells in each group (with or without mitomycin C) was assigned the value 100%. The average of 4 separate experiments is depicted. […] Similar results were obtained in human HaCaT skin cells in which the insulin receptor was inactivated by siRNA.

The test system of assay [2] is primary murine keratinocytes. As to the kind of experiment: In vitro scratch closure assay, primary murine keratinocytes. Format: cell-based. The protocol:
as §1, §2

Take IGF1: the “assembly of K1 (keratin 1 in the insoluble fraction)” value with keratin 1 is recorded as “opposite effect”. Moreover, in assay [1], the “expression of K14 (marker of proliferating keratinocytes)” value was “maintained abnormally in apical layers”; the “expression of the differentiation markers Keratin-1 and Loricrin” value was “delayed expression”.
As for `CCCCCCCCCCCCCC(=O)O[C@@H]1[C@@H](C)[C@@]2(O)[C@@H](C=C(CO)C[C@]3(O)C(=O)C(C)=C[C@@H]23)[C@@H]2C(C)(C)[C@]12OC(C)=O` [TPA, 12-O-tetradecanoylphorbol-13-acetate], in the assay with p21 (WAF1/Cip1), the “levels of p21, a marker of cellular senescence” value is reported as “decreased levels of p21”.
For insulin, the “SCC cancer cell proliferation with insulin alone” value with SCC Cal 27 cells is reported as “increased the proliferation”. The “assembly of K1 (keratin 1 in the insoluble fraction)” value in the assay with keratin 1 is recorded as “enhanced assembly of K1”. Moreover, the “epidermal differentiation by histological analysis” value in assay [1] (10^-6M insulin or 10^-7M IGF1 in growth medium, FIG. 3A) is listed as “supported epidermal differentiation”. In assay [1], the “expression of K14 (marker of proliferating keratinocytes)” value was “more rapid disappearance”; the “expression of the differentiation markers Keratin-1 and Loricrin” value is “enhanced”. Moreover, in the assay on human HaCaT skin cells, the “effect on scratch closure in IR-inactivated cells” value is on record as “eliminated by IR inactivation”. For the same compound, the “effect on scratch closure in presence of mitomycin C” value in assay [2] (25 microgram/ml mitomycin C 4 hours prior to wounding, FIG. 6A bottom) was “not eliminated”. Moreover, in assay [2] (insulin 10^-6M, IGF-1 10^-7M, 24 hours, absence of mitomycin C, FIG. 6A top), the scratch closure result is “facilitated scratch closure more than IGF”.
